# Experimental data as given in PubChem BioAssay (NCI).
#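 Tested at 5 concentrations; 48 h exposure; 96-well plates; endpoints linearly interpolated, else capped at highest concentration. The concentration for full growth arrest is given as TGI.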
# Columns and labels:
# Assay in all cases: NCI-60 cell line screen, 48 h
# [1] = tested on: COLO 205 colon
# [2] = tested on: DMS 273 small cell lung
# [3] = tested on: HOP-92 NSCLC
# [4] = tested on: U251 CNS
# [5] = tested on: HL-60(TB) leukemia
# [6] = tested on: IGROV1 ovarian
# [7] = tested on: RXF 393 renal
# [8] = tested on: SK-MEL-28 melanoma
# [9] = tested on: NCI-H522 lung
# [10] = tested on: SNB-19 CNS
# [11] = tested on: CAKI-1 renal
# [12] = tested on: NCI-H226 lung
# [13] = tested on: M19-MEL melanoma
# [14] = tested on: OVCAR-3 ovarian
# [15] = tested on: UACC-257 melanoma
# [16] = tested on: LOX IMVI melanoma
# [17] = tested on: MALME-3M melanoma
# [18] = tested on: MOLT-4 leukemia
# [19] = tested on: SF-539 CNS
# [20] = tested on: SW-620 colon
# [21] = tested on: A549 NSCLC
# [22] = tested on: HT29 colon
# [23] = tested on: RPMI-8226 leukemia
# [24] = tested on: SNB-75 CNS
# [25] = tested on: SF-295 CNS
# [26] = tested on: DLD-1 colon
# [27] = tested on: NCI-H23 lung
# [28] = tested on: HOP-18 NSCLC
# [29] = tested on: HOP-62 NSCLC
# [30] = tested on: OVCAR-8 ovarian
# [31] = tested on: SNB-78 CNS
# [32] = tested on: SK-MEL-5 melanoma
# [33] = tested on: UO-31 renal
# [34] = tested on: KM20L2 colon
# [35] = tested on: KM12 colon
# [36] = tested on: 786-0 renal
# [37] = tested on: HCT-15 colon
# [38] = tested on: K-562 leukemia
# [39] = tested on: SN12C renal
# [40] = tested on: NCI-H460 lung
# [41] = tested on: CCRF-CEM leukemia
# [42] = tested on: SK-OV-3 ovarian
# [43] = tested on: UACC-62 melanoma
# [44] = tested on: ACHN renal
# [45] = tested on: DMS 114 small cell lung
# [46] = tested on: EKVX NSCLC
# [47] = tested on: TK-10 renal
# [48] = tested on: A498 renal
# [49] = tested on: SF-268 CNS
# [50] = tested on: HCC-2998 colon
# [51] = tested on: OVCAR-5 ovarian
# [52] = tested on: SK-MEL-2 melanoma
# [53] = tested on: HCT-116 colon
# [54] = tested on: OVCAR-4 ovarian
# [55] = tested on: M14 melanoma
# [56] = tested on: SR leukemia
# [57] = tested on: LXFL 529 NSCLC
structure (smiles),measurement,setting,value
Clc1ccc(OCCSCCCCCCCCCCSCCOc2ccc(Cl)cc2)cc1,TGI,[1],> 100 µM
same,TGI,[2],> 100 µM
same,TGI,[3],> 100 µM
same,TGI,[4],> 100 µM
same,TGI,[5],> 100 µM
same,TGI,[6],> 100 µM
same,TGI,[7],> 100 µM
same,TGI,[8],> 100 µM
same,TGI,[9],> 100 µM
same,TGI,[10],> 100 µM
same,TGI,[11],> 100 µM
same,TGI,[12],> 100 µM
same,TGI,[13],> 100 µM
same,TGI,[14],> 100 µM
same,TGI,[15],> 100 µM
same,TGI,[16],> 100 µM
same,TGI,[17],> 100 µM
same,TGI,[18],> 100 µM
same,TGI,[19],> 100 µM
same,TGI,[20],> 100 µM
same,TGI,[21],> 100 µM
same,TGI,[22],> 100 µM
same,TGI,[23],> 100 µM
same,TGI,[24],> 100 µM
same,TGI,[25],> 100 µM
same,TGI,[26],> 100 µM
same,TGI,[27],> 100 µM
same,TGI,[28],> 100 µM
same,TGI,[29],> 100 µM
same,TGI,[30],> 100 µM
same,TGI,[31],> 100 µM
same,TGI,[32],> 100 µM
same,TGI,[33],> 100 µM
same,TGI,[34],> 100 µM
same,TGI,[35],> 100 µM
same,TGI,[36],> 100 µM
same,TGI,[37],> 100 µM
same,TGI,[38],> 100 µM
same,TGI,[39],> 100 µM
same,TGI,[40],> 100 µM
same,TGI,[41],> 100 µM
same,TGI,[42],> 100 µM
same,TGI,[43],> 100 µM
same,TGI,[44],> 100 µM
same,TGI,[45],> 100 µM
same,TGI,[46],> 100 µM
same,TGI,[47],> 100 µM
same,TGI,[48],> 100 µM
same,TGI,[49],> 100 µM
same,TGI,[50],> 100 µM
same,TGI,[51],> 100 µM
same,TGI,[52],> 100 µM
Nc1nc[n+](Cc2ccccc2)c2ncn(Cc3ccccc3)c12,TGI,[1],82.8 µM
same,TGI,[2],> 100 µM
same,TGI,[3],96.6 µM
same,TGI,[4],> 100 µM
same,TGI,[5],> 100 µM
same,TGI,[6],> 100 µM
same,TGI,[7],71 µM
same,TGI,[8],> 100 µM
same,TGI,[9],> 100 µM
same,TGI,[10],> 100 µM
same,TGI,[11],> 100 µM
same,TGI,[12],> 100 µM
same,TGI,[13],> 100 µM
same,TGI,[14],> 100 µM
same,TGI,[15],> 100 µM
same,TGI,[16],> 100 µM
same,TGI,[17],> 100 µM
same,TGI,[53],> 100 µM
same,TGI,[19],> 100 µM
same,TGI,[54],> 100 µM
same,TGI,[20],> 100 µM
same,TGI,[21],> 100 µM
same,TGI,[22],> 100 µM
same,TGI,[24],> 100 µM
same,TGI,[25],> 100 µM
same,TGI,[26],> 100 µM
same,TGI,[27],> 100 µM
same,TGI,[28],> 100 µM
same,TGI,[29],> 100 µM
same,TGI,[30],> 100 µM
same,TGI,[55],86.3 µM
same,TGI,[31],> 100 µM
same,TGI,[32],> 100 µM
same,TGI,[33],> 100 µM
same,TGI,[34],> 100 µM
same,TGI,[35],> 100 µM
same,TGI,[36],> 100 µM
same,TGI,[56],> 100 µM
same,TGI,[37],> 100 µM
same,TGI,[38],> 100 µM
same,TGI,[57],> 100 µM
same,TGI,[39],> 100 µM
same,TGI,[40],> 100 µM
same,TGI,[41],> 100 µM
same,TGI,[42],> 100 µM
same,TGI,[43],> 100 µM
same,TGI,[44],> 100 µM
same,TGI,[46],> 100 µM
same,TGI,[47],> 100 µM
same,TGI,[48],> 100 µM
same,TGI,[49],> 100 µM
same,TGI,[50],60.4 µM
same,TGI,[51],> 100 µM
same,TGI,[52],> 100 µM
